Results reported in US9650635B2, “Pharmaceutical compositions comprising small interfering RNA inhibitors of NOX3” (UNIVERSITY OF GENEVA, priority 2004, dated 2017).

Key:
Format in all cases: cell-based
NOX3 = target: T1, NOX3 (Mus musculus, UniProt Q672J9, D161Y); assay: Superoxide production of HEK293 cells transfected with NOX3 alone (luminol-amplified chemiluminescence / Diogenes / cytochrome C reduction)
T1 construct: expressed in transfected cells; host or cells: HEK293, transient transfection, pcDNA3.1
T1 sequence (Q672J9 1-568 D161Y): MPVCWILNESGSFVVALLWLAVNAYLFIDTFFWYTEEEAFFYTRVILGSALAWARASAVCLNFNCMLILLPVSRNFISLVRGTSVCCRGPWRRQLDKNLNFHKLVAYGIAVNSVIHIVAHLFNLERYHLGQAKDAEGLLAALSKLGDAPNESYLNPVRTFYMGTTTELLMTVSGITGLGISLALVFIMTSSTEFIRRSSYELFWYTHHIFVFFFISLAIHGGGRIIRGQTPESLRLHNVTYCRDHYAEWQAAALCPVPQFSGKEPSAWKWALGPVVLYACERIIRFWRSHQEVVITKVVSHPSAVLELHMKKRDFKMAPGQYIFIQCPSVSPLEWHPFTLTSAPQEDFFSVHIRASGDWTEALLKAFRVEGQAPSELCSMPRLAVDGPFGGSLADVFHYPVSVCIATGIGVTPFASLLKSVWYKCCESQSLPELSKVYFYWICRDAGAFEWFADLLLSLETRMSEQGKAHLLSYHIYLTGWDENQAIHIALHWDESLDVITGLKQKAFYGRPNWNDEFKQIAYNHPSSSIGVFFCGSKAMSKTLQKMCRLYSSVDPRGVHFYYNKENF
T1 sequence (P13498 1-195 partner): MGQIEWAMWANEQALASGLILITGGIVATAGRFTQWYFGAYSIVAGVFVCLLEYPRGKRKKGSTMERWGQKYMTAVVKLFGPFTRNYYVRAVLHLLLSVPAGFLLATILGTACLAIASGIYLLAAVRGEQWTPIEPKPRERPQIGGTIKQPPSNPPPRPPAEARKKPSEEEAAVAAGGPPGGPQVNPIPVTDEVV
Protocol: (§1) HEK293 were maintained in Dulbecco's Modified Eagle's Medium/Ham's Nutrient Mixture F12 that was supplemented with 10% fetal calf serum, penicillin (100 units/ml), streptomycin (100 μg/ml), and 4 mmol/liter L-glutamine. NOX3-, NOXO1-, NOXA1-, p47^phox, and p67^phox cDNAs were subcloned into pcDNA3.1 (Invitrogen, Groningen, Netherlands) and transfected into HEK293 cells with the Effectene transfection system (Qiagen). To obtain stable clones, NOX3, NOXO1, NOXA1-transfected HEK293 cells were selected with 400 μg/ml G418 starting on the 2nd day after the transfection. After 14 days of selection, 24 surviving clones were tested for superoxide production. The positive clones were verified to express NOX3-, NOXO1-, and NOXA1 RNA by RT-RCR.
(§2) ROS generation was measured by the peroxidase-dependent luminol-amplified chemiluminescence technique (referred to as luminol-amplified chemiluminescence) in 96 well microplates using Luminometer Wallac 1420 Multilabel Counter (PerkinElmer Life Sciences). Measurements were performed in Hanks' balanced salt solution supplemented with 1 mg/ml D-glucose, 1 unit/ml horseradish peroxidase, and 250 μM luminol. In some experiments, phorbol ester (PMA) was added during the measurements to 100 nM final concentration. When the effect of cisplatin or 5-Fluorouracil (5-FU) was investigated, these compounds were pre-incubated with the cells for the indicated time and concentration in cell culture medium. Before ROS measurements, the cell culture medium was exchanged with the assay solution and chemiluminescence or absorption (see below) was measured at 37° C. After measurements cells were counted, and the results were normalized to 150,000 cells. Extracellular superoxide production was measured in 96-well microplates at 550 nm as the SOD-sensitive reduction of 100 μM ferricytochrome C (referred to as cytochrome C reduction technique). The O^−2 production was calculated using an absorption coefficient of 21.1 mM^−1 cm^−1 and normalized to 10^7 cells.

NOX3/NOXO1/NOXA1 = target: T2, NOX3/NOXO1/NOXA1 (Mus musculus, UniProt Q672J9, D161Y); assay: Superoxide production of HEK293 cells expressing NOX3/NOXO1/NOXA1 (luminol-amplified chemiluminescence)
T2 construct: expressed in transfected cells
Protocol: as §1, §2

[1] = target: T3, NOX3, p47^phox, and p67^phox (Mus musculus, UniProt Q672J9, D161Y); assay: Superoxide production of HEK293 cells co-transfected with NOX3, p47phox and p67phox
T3 construct: expressed in transfected cells; host or cells: HEK293, transient co-transfection, pcDNA3.1
T3 sequence (Q672J9 1-568 D161Y): T1 sequence (Q672J9 1-568 D161Y)
T3 sequence (P13498 1-195 partner): T1 sequence (P13498 1-195 partner)
Protocol: as §1, §2

[2] = target: T4, NOXO1, p67^phox, and NOX3 (Mus musculus, UniProt Q672J9, D161Y); assay: Superoxide production of HEK293 cells expressing NOXO1, p67phox and NOX3; settings: 100 nM PMA
T4 construct: expressed in transfected cells; host or cells: HEK293, transient co-transfection, pcDNA3.1
Protocol: as §1, with “The positive clones were verified to express NOX3-, NOXO1-, and NOXA1 RNA by RT-RCR.” left out
(§3) ROS generation was measured by the peroxidase-dependent luminol-amplified chemiluminescence technique (referred to as luminol-amplified chemiluminescence) in 96 well microplates using Luminometer Wallac 1420 Multilabel Counter (PerkinElmer Life Sciences). […] Before ROS measurements, the cell culture medium was exchanged with the assay solution and chemiluminescence or absorption (see below) was measured at 37° C. After measurements cells were counted, and the results were normalized to 150,000 cells. Extracellular superoxide production was measured in 96-well microplates at 550 nm as the SOD-sensitive reduction of 100 μM ferricytochrome C (referred to as cytochrome C reduction technique). […]

[3] = target: T5, p47^phox, NOXA1, and NOX3 (Mus musculus, UniProt Q672J9, D161Y); assay: Superoxide production of HEK293 cells expressing p47phox, NOXA1 and NOX3; settings: 100 nM PMA
T5 construct: expressed in transfected cells; host or cells: HEK293, transient co-transfection, pcDNA3.1
T5 sequence (Q672J9 1-568 D161Y): T1 sequence (Q672J9 1-568 D161Y)
T5 sequence (P13498 1-195 partner): T1 sequence (P13498 1-195 partner)
Protocol: as §1, with “The positive clones were verified to express NOX3-, NOXO1-, and NOXA1 RNA by RT-RCR.” left out
as §3

[4] = test system: HEK293 cells transfected with control vector (pcDNA3.1); assay: Superoxide production of HEK293 cells transfected with control vector; settings: control-transfected (pcDNA3.1) HEK293 cells, 20 μM cisplatin, 12 hours
Protocol: as §1, with “The positive clones were verified to express NOX3-, NOXO1-, and NOXA1 RNA by RT-RCR.” left out
as §3

[5] = stable clone, 12 hours incubation

T2 sequence (Q8NFA2 whole entry partner, one chain of several): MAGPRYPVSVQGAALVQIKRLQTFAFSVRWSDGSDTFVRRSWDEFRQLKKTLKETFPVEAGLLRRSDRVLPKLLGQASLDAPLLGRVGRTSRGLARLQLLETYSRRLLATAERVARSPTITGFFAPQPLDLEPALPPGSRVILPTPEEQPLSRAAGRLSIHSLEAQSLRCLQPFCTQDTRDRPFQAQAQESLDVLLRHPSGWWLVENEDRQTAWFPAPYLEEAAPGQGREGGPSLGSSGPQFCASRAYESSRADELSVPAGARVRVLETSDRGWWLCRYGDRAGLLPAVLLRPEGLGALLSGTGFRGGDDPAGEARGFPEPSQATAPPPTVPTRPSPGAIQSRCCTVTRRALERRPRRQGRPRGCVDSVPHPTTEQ
T2 sequence (Q86UR1 whole entry partner, one chain of several): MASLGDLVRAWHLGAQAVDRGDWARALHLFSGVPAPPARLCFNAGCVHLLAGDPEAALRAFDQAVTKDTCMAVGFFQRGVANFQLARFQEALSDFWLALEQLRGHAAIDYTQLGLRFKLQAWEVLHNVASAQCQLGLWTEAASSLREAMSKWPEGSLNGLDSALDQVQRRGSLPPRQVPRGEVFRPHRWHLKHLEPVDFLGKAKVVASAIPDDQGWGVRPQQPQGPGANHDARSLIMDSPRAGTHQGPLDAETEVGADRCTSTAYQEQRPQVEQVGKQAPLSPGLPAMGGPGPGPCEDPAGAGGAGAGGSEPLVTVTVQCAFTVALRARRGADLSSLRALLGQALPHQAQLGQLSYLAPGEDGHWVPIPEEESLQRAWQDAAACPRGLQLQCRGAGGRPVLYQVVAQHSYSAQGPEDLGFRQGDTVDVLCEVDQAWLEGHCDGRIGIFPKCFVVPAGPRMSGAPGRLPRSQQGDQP
T4 sequence (Q8NFA2 whole entry partner, one chain of several): as the sequence (Q8NFA2 whole entry partner, one chain of several) above
T4 sequence (P19878 whole entry partner, one chain of several): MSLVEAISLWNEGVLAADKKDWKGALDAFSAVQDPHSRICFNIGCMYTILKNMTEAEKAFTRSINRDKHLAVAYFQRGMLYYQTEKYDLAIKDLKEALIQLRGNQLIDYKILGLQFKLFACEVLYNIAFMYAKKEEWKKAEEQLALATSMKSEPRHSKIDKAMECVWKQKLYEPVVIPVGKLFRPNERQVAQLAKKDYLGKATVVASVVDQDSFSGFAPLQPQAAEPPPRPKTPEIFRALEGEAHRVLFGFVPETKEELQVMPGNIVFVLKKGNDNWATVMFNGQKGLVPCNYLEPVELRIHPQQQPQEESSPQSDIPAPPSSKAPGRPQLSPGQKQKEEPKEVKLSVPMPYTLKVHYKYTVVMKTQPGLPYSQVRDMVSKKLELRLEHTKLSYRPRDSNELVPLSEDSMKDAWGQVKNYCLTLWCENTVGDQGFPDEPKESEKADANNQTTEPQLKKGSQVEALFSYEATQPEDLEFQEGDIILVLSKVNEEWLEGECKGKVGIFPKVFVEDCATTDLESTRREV

c1ccc2c(c1)[I+]c1ccccc1-2 [DPI, diphenylene iodonium]
effect of DPI on superoxide generation (NOX3; NOX3-transfected HEK293 cells, cisplatin and PMA treated, 5 μM DPI): blocked it completely | effect of DPI on superoxide generation (NOX3/NOXO1/NOXA1; stable HEK293 clones, with or without cisplatin, 5 μM DPI): abolished | effect of DPI on superoxide production ([1]; cisplatin-treated cells, 5 μM DPI, not shown): blocked

O=c1[nH]cc(F)c(=O)[nH]1 [5-fluorouracil, 5-Fluorouracil]
effect of 5-fluorouracil on superoxide production (NOX3/NOXO1/NOXA1; 100 μM, 17 hours, data not shown): did not influence superoxide production

CCCCCCCCCCCCCC(=O)O[C@@H]1[C@@H](C)[C@@]2(O)[C@@H](C=C(CO)C[C@]3(O)C(=O)C(C)=C[C@@H]23)[C@@H]2C(C)(C)[C@]12OC(C)=O [PMA, phorbol 12-myristate 13-acetate]
effect of PMA on superoxide generation after cisplatin (NOX3; NOX3-transfected HEK293 cells pre-incubated with 20 μM cisplatin, 100 nM PMA): further increased superoxide generation | superoxide generation in the presence of PMA (NOX3; NOX3-transfected HEK293 cells, no other subunits, 100 nM PMA): low amounts of superoxide | effect of PMA on superoxide generation (NOX3/NOXO1/NOXA1; NOX3/NOXO1/NOXA1 HEK293 cells, 100 nM PMA): insensitive to PMA | effect of PMA on NOX3 activity ([1]; 100 nM PMA): strong enhancement of NOX3 activity | effect of PMA on superoxide generation [2]: could not be further enhanced by PMA | effect of PMA on superoxide production [3]: largely PMA-dependent

N.N.[Cl][Pt][Cl] [Cisplatin]
effect of cisplatin on superoxide production (NOX3; NOX3-transfected HEK293 cells, 20 μM cisplatin, 12 hours, before PMA addition): elicited superoxide production | effect of cisplatin on superoxide production (NOX3/NOXO1/NOXA1; stable HEK293 clones, 20 μM cisplatin, 12 hours): marked increase of superoxide production | t50 of NOX3 activation (NOX3/NOXO1/NOXA1; stable clone, 20 μM cisplatin): 11.5 ± 1.7 h | treatment time at which NOX3 activity is already enhanced (NOX3/NOXO1/NOXA1; stable clone, 20 μM cisplatin): 5 h | treatment time to maximal effect (NOX3/NOXO1/NOXA1; stable clone, 20 μM cisplatin): around 17 hours | concentration at which NOX3-dependent ROS generation is already increased (NOX3/NOXO1/NOXA1; [5]): 1 µM | concentration with maximal effect on NOX3-dependent ROS generation (NOX3/NOXO1/NOXA1; [5]): 20 µM | EC50 (NOX3/NOXO1/NOXA1; stable clone, 12 hours incubation, read-out: EC50 of NOX3 activation): 3.6 µM | factor of enhancement of superoxide production ([1]; 20 μM cisplatin, 12 hours): approximately 3.3 | effect of cisplatin on superoxide production [4]: not in control-transfected cells
